One data set has as its system CL1-0 cells. The data set is described as follows: Transwell migration of TOPK-overexpressing CL1-0 cells with pharmacological inhibitors. Format: cell-based, human. Conditions: CL1-0 cells transfected with pCMV2-Flag-TOPK; inhibitor 10 μM, 2 hrs.
The conditions of data set [1]: human, in vivo; cited from earlier work.
The subject of another data set is phospho-H2AX (γ-H2AX). Nature of the data set: Immunoblot of cisplatin-induced H2AX phosphorylation. Format: cell-based, human. Conditions: cisplatin 35 μM; for cisplatin-induced γ-H2AX after TOPK shRNA: A549-Luc cells stably transfected with shRNA. The source says: Cells were harvested for detecting the expression of phospho-H2AX (γ-H2AX), H2AX and TOPK by immunoblotting.
Platinum-based combination chemotherapy (i.e. cisplatin) is recognized as the first-line standard of care in NSCLC. […]
(In general: In western blotting, separated proteins are transferred to a membrane and probed.)

The subject of a further data set is CL152 cells. The data set is described as follows: MTT cell viability after cisplatin in siRNA-transfected CL152 cells. Type of data set: cell-based. Conditions: cisplatin 35 μM, 48 hr. The method, then:
After 48 hr, MTT assays were performed to examine the cell viability (n=3, ** P<0.01).
(§1) Different lung cancer cell lines have been previously analyzed for the expression level of TOPK (data not shown). […] Recently, we have tested the knockdown effect of TOPK in promoting cisplatin-induced cytotoxicity in other lung cancer cells, such as CL152 and CL141 cells.

The subject of the next data set is PTEN. The data set is described as follows: Immunoblot of PTEN in TOPK-transfected CL1-0 cells treated with inhibitor. Type of data set: cell-based, human. The settings on record: LY294002 10 μM. The method, then:
CL1-0 (C, left), H1299 (C, right), and IMR90 (D) cells were transiently transfected with a vector control or pCMV2-Flag-TOPK (WT) or pCMV2-Flag-TOPK (KD) plasmid; twenty-two hours after transfection, a fraction of the cells was harvested for immunoblotting as indicated in (B); the migration and cell viability of TOPK-overexpressing IMR90 cells was also evaluated as described previously (D, right panel) (*P<0.05, **P<0.01, ***P<0.001);
To determine whether TOPK mediated AKT-dependent cell mortility by regulating the PTEN protein level, we first examined whether co-treating cells with LY294002, a PI3K inhibitor, could affect the TOPK-induced decrease in PTEN. […] Moreover, when PTEN was ectopically expressed, TOPK-induced phosphorylation of AKT-Ser^473 was blocked in a dose-dependent manner (FIG. 5A).

Another data set has as its system pAKT. The data set is described as follows: Immunoblot of EGF-induced AKT phosphorylation in A549-Luc cells. Format: cell-based, human. Conditions: A549-Luc stably transfected with shRNA; serum deprived 24 hrs; EGF 20 ng/ml, 0-30 min. The method, then:
FIG. 15 provides the results of knockdown of TOPK decreasing EGF-induced AKT phosphorylation in A549-Luc cells. shNC, shTOPK-3 (SEQ ID NO: 3), and shTOPK-4 (SEQ ID NO: 4) stably transfected A549-Luc cells were serum deprived for 24 hrs. EGF (20 ng/ml) was added to stimulate cells for 0˜30 min as indicated. Then, cells were harvested for detecting the expression of pAKT, AKT and TOPK by immunoblotting.
as §1

Here are results for 6 compounds from patent publication US8455196B2, “Biomarker for identifying subgroup of early-stage lung adenocarcinoma patients” (priority 2011, dated 2013).

`C[S+]([O-])c1ccc(-c2nc(-c3ccncc3)c(-c3ccc(F)cc3)[nH]2)cc1` (stereo not shown) [SB203580]: the “increase in cell migration stimulated by ectopic expression of TOPK” value in the data set on CL1-0 cells was “inhibited to a smaller extent”. As for `N.N.[Cl][Pt][Cl]` [cisplatin], the “concentration found in the serum of cisplatin-treated patients” value in data set [1] was 35 µM. Besides, the “time of peak of cisplatin-induced γ-H2AX” value in the data set on phospho-H2AX (γ-H2AX) (A549 control cells) stood at 12 h. The “cell death induced by cisplatin” value in the data set on CL152 cells is on record as around 90%.

Take `O=c1cc(N2CCOCC2)oc2c(-c3ccccc3)cccc12` [LY294002]: the “TOPK-induced reduction of PTEN” value in the data set with PTEN is “no effect”. Consider “shTOPK-4: shRNA having a sequence as set forth in SEQ ID NO:4 (TGTGGGAAATGATGACTTTAT; shRNA, further chemistry not given here)”, for which, in the data set with pAKT, the “EGF-induced AKT phosphorylation” value is on record as “decreasing”. Also, in the data set with phospho-H2AX (γ-H2AX), the “cisplatin-induced γ-H2AX after TOPK shRNA” value is reported as “significantly decreasing”. For “shTOPK-3: shRNA having a sequence as set forth in SEQ ID NO:3 (TGACCCTGAGGCTTGTTACAT; shRNA, further chemistry not given here)”, in that order: “decreasing” and “significantly decreasing”. Consider `N#CC(=C(/N)Sc1ccccc1N)/C(C#N)=C(\N)Sc1ccccc1N` [U0126], for which the “increase in cell migration stimulated by ectopic expression of TOPK” value in the data set with CL1-0 cells is given as “inhibited to a smaller extent”.
